Laboratory results reported in patent publication US9139557B2, “Carboxamide compounds and their use as calpain inhibitors” (Abbott GmbH & Co. KG, priority 2006, dated 2015).

Experiments:
Assay type in all cases: biochemical
cathepsin K = molecular target: T1, cathepsin K (Homo sapiens, UniProt P43235); experiment: Cathepsin K enzyme inhibition in vitro (kinetic fluorescence assay); conditions: Ki(cathepsin K)/Ki(calpain) ratio
T1 construct: purchased Calbiochem 342001; host or cells: E. coli
T1 sequence (P43235 115-329): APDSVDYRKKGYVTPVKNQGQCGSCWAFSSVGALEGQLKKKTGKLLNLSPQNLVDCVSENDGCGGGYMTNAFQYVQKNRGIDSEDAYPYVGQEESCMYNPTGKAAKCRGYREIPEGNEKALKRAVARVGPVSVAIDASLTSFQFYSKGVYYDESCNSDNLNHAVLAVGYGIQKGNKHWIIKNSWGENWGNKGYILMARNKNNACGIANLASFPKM
Description: (§1) Testing for blockade of the corresponding enzymic activities was carried out by means of kinetic fluorescence assays (excitation 390 nm, emission 460 nm).
(§2) Apparent Ki values were calculated from the experimentally determined IC50 values by the Cheng-Prussoff relation assuming a reversible competitive enzyme inhibition. The Km values of the substrates used under the assay conditions indicated above were: 90 μM (Z-Phe-Arg-AMC, cathepsin B), 10 μM (Z-Gly-Pro-Arg-AMC, cathepsin K), 2 μM (Z-Phe-Arg-AMC, cathepsin L), and 30 μM (Z-Val-Val-Arg-AMC, cathepsin S).
(§3) The indicated Ki values are averages of the inhibition constants calculated on the basis of 2 to 4 independent dose-effect plots.
(§4) • 1. Calpain I: • 20 nM calpain-I—isolated from human erythrocytes (Calbiochem #208713), 100 μM Suc-Leu-Tyr-AMC (Bachem #1-1355) as substrate in buffer with 62 mM imidazole, 0.3 mM CaCl2, 0.10% CHAPS, 0.05% BSA, 1 mM DTT at pH 7.3 and room temperature. • 2. Cathepsin B: • 0.25 nM cathepsin B—isolated from human liver (Calbiochem #219362), 100 μM Z-Phe-Arg-AMC (Bachem #1-1160) as substrate 50 mM MES, 2 mM EDTA, 0.05% Brij 35, 2.5 mM L-cysteine, pH 6.0, room temperature. • 3. Cathepsin K: • 3 nM cathepsin K—activated from recombinant human procathepsin K from E. coli (Calbiochem #342001), 10 μM Z-Gly-Pro-Arg-AMC (Biomol #P-142) as substrate in 50 mM MES, 2 mM EDTA, 0.05% Brij 35, 2.5 mM L-cysteine, pH 6.0, room temperature. • 4. Cathepsin L: • 1 nM cathepsin L—isolated from human liver (Calbiochem #219402), 2 μM Z-Phe-Arg-AMC (Bachem #1-1160) as substrate in 50 mM MES, 2 mM EDTA, 0.05% Brij 35, 2.5 mM L-cysteine, pH 6.0, room temperature. • 5. Cathepsin S: • 0.5 nM recombinant human cathepsin S from E. coli (Calbiochem #219343), 20 μM Z-Val-Val-Arg-AMC (Bachem #1-1540) as substrate in 50 mM MES, 2 mM EDTA, 0.05% Brij 35, 2.5 mM L-cysteine, pH 6.0, room temperature.

cathepsin L = molecular target: T2, cathepsin L (Homo sapiens, UniProt P07711); experiment: Cathepsin L enzyme inhibition in vitro (kinetic fluorescence assay); conditions: Ki(cathepsin L)/Ki(calpain) ratio
T2 construct: cathepsin L—isolated from human liver; purchased Calbiochem 219402; host or cells: human liver (tissue isolate)
Description: as §1, §2, §3, §4

cathepsin S = molecular target: T3, cathepsin S (Homo sapiens, UniProt P25774); experiment: Cathepsin S enzyme inhibition in vitro (kinetic fluorescence assay); conditions: Ki(cathepsin S)/Ki(calpain) ratio
T3 construct: purchased Calbiochem 219343; host or cells: E. coli
Description: as §1, §2, §3, §4

cathepsin B = molecular target: T4, cathepsin B (Homo sapiens, UniProt P07858); experiment: Cathepsin B enzyme inhibition in vitro (kinetic fluorescence assay); conditions: Ki(cathepsin B)/Ki(calpain) ratio
T4 construct: cathepsin B—isolated from human liver; purchased Calbiochem 219362; host or cells: human liver (tissue isolate)
Description: as §1, §2, §3, §4

T2 sequence (P07711 114-333): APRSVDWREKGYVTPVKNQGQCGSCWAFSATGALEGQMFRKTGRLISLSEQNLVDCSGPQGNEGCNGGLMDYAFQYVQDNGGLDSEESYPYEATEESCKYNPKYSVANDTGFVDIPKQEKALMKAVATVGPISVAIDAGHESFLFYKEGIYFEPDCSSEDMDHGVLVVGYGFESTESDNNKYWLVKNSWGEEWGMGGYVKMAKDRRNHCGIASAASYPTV
T3 sequence (P25774 115-331): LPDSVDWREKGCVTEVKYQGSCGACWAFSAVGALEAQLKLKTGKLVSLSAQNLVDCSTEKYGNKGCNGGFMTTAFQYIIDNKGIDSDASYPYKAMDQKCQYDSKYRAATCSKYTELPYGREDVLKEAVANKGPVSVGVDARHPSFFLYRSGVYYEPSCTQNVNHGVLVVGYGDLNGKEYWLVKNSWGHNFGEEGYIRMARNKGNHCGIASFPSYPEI

Compound	Sel cat. K (cathepsin K)	Sel cat. L (cathepsin L)	Sel cat. S (cathepsin S)	Sel cat. B (cathepsin B)
Cl.NC(=O)C(=O)C(Cc1ccccc1)NC(=O)c1cccnc1-n1ccc(-c2ccc(N3CCOCC3)cc2)n1 (stereo not shown) [Example 29, N-(3-Amino-1-benzyl-2,3-dioxopropyl)-2-[3-(4-morpholin-4-ylphenyl)-1H-pyrazol-1-yl]nicotinamide hydrochloride]	+ (+ means 10≦Ki(cathepsin K)/Ki(calpain)<30)	++ (++ means a Ki(cathepsin L)/Ki(calpain) ratio of ≧50)	++ (++ means a Ki(cathepsin S)/Ki(calpain) ratio of ≧100)	–
N#Cc1cnc(-n2ccc(-c3ccccc3)n2)c(C(=O)NC(Cc2ccccc2)C(=O)C(N)=O)c1 (stereo not shown) [Example 82, N-(3-Amino-1-benzyl-2,3-dioxopropyl)-5-cyano-2-(3-phenyl-1H-pyrazol-1-yl)nicotinamide]	++ (++ means a Ki(cathepsin K)/Ki(calpain) ratio of ≧30)	++ (++ means a Ki(cathepsin L)/Ki(calpain) ratio of ≧50)	–	++ (++ means a Ki(cathepsin B)/Ki(calpain) ratio of ≧30)
CN1CCN(c2ccc(-c3ccn(-c4ncccc4C(=O)NC(Cc4ccccc4)C(=O)C(N)=O)n3)cc2)CC1 (stereo not shown) [Example 68, N-(3-Amino-1-benzyl-2,3-dioxopropyl)-2-{3-[4-(4-methylpiperazin-1-yl)phenyl]-1H-pyrazol-1-yl}nicotinamide]	+ (+ means 10≦Ki(cathepsin K)/Ki(calpain)<30)	–	++ (++ means a Ki(cathepsin S)/Ki(calpain) ratio of ≧100)	–
NC(=O)C(=O)C(Cc1ccc(Br)cc1)NC(=O)c1cccnc1-n1ccc(-c2ccccc2)n1 (stereo not shown) [Example 122, N-{3-Amino-1-[(4-bromophenyl)methyl]-2,3-dioxopropyl}-2-(3-phenyl-1H-pyrazol-1-yl)pyridine-3-carboxamide]	–	++ (++ means a Ki(cathepsin L)/Ki(calpain) ratio of ≧50)	++ (++ means a Ki(cathepsin S)/Ki(calpain) ratio of ≧100)	++ (++ means a Ki(cathepsin B)/Ki(calpain) ratio of ≧30)
Cc1cn(-c2ncccc2C(=O)NC(Cc2ccccc2)C(=O)C(N)=O)nc1-c1ccccc1 (stereo not shown) [Example 84, N-(3-Amino-1-benzyl-2,3-dioxopropyl)-2-(4-methyl-3-phenyl-1H-pyrazol-1-yl)nicotinamide]	–	++ (++ means a Ki(cathepsin L)/Ki(calpain) ratio of ≧50)	++ (++ means a Ki(cathepsin S)/Ki(calpain) ratio of ≧100)	+ (+ means 10≦Ki(cathepsin B)/Ki(calpain)<30)
NC(=O)C(=O)C(CC1CCCCC1)NC(=O)c1cccnc1-n1ccc(-c2ccccc2)n1 (stereo not shown) [Example 66, N-[3-Amino-1-(cyclohexylmethyl)-2,3-dioxopropyl]-2-(3-phenyl-1H-pyrazol-1-yl)nicotinamide]	+ (+ means 10≦Ki(cathepsin K)/Ki(calpain)<30)	+ (+ means 30≦Ki(cathepsin L)/Ki(calpain)<50)	++ (++ means a Ki(cathepsin S)/Ki(calpain) ratio of ≧100)	–
NC(=O)C(=O)C(Cc1ccccc1)NC(=O)c1cc(Cl)cnc1-n1ccc(-c2ccccc2)n1 (stereo not shown) [Example 27, N-(3-Amino-1-benzyl-2,3-dioxopropyl)-5-chloro-2-(3-phenyl-1H-pyrazol-1-yl)nicotin-amide]	+ (+ means 10≦Ki(cathepsin K)/Ki(calpain)<30)	+ (+ means 30≦Ki(cathepsin L)/Ki(calpain)<50)	–	++ (++ means a Ki(cathepsin B)/Ki(calpain) ratio of ≧30)
NC(=O)C(=O)C(Cc1ccccc1)NC(=O)c1cccnc1-n1ccc(C2CCCCC2)n1 (stereo not shown) [Example 192, N-[3-Amino-2,3-dioxo-1-(phenylmethyl)propyl]-2-(3-cyclohexyl-1H-pyrazol-1-yl)pyridine-3-carboxamide]	+ (+ means 10≦Ki(cathepsin K)/Ki(calpain)<30)	++ (++ means a Ki(cathepsin L)/Ki(calpain) ratio of ≧50)	++ (++ means a Ki(cathepsin S)/Ki(calpain) ratio of ≧100)	–
NC(=O)C(=O)C(Cc1cccs1)NC(=O)c1cccnc1-n1ccc(-c2ccccc2)n1 (stereo not shown) [Example 40, N-[3-Amino-2,3-dioxo-1-(2-thienylmethyl)propyl]-2-(3-phenyl-1H-pyrazol-1-yl)pyridine-3-carboxamide]	–	++ (++ means a Ki(cathepsin L)/Ki(calpain) ratio of ≧50)	++ (++ means a Ki(cathepsin S)/Ki(calpain) ratio of ≧100)	+ (+ means 10≦Ki(cathepsin B)/Ki(calpain)<30)
N-{3-Amino-1-[(4-fluorophenyl)methyl]-2,3-dioxopropyl}-2-[3-(2,3-dichlorophenyl)-1H-pyrazol-1-yl]pyridine-3-carboxamide [Example 161]	–	+ (+ means 30≦Ki(cathepsin L)/Ki(calpain)<50)	++ (++ means a Ki(cathepsin S)/Ki(calpain) ratio of ≧100)	+ (+ means 10≦Ki(cathepsin B)/Ki(calpain)<30)
N#Cc1cnc(-n2ccc(-c3ccccc3F)n2)c(C(=O)NC(Cc2ccccc2)C(=O)C(N)=O)c1 (stereo not shown) [Example 188, N-[3-Amino-2,3-dioxo-1-(phenylmethyl)propyl]-5-cyano-2-[3-(2-fluorophenyl)-1H-pyrazol-1-yl]pyridine-3-carboxamide]	++ (++ means a Ki(cathepsin K)/Ki(calpain) ratio of ≧30)	++ (++ means a Ki(cathepsin L)/Ki(calpain) ratio of ≧50)	–	–
NC(=O)C(=O)C(Cc1ccccc1)NC(=O)c1cccnc1-n1ccc(-c2cccc(N3CCCC3)c2)n1 (stereo not shown) [Example 74, N-(3-Amino-1-benzyl-2,3-dioxopropyl)-2-[3-(3-pyrrolidin-1-ylphenyl)-1H-pyrazol-1-yl]nicotinamide]	++ (++ means a Ki(cathepsin K)/Ki(calpain) ratio of ≧30)	–	++ (++ means a Ki(cathepsin S)/Ki(calpain) ratio of ≧100)	++ (++ means a Ki(cathepsin B)/Ki(calpain) ratio of ≧30)
NC(=O)C(=O)C(Cc1ccccc1)NC(=O)c1cc(Cl)cnc1-n1ccc(-c2ccc(N3CCOCC3)cc2)n1 (stereo not shown) [Example 31, N-(3-Amino-1-benzyl-2,3-dioxopropyl)-5-chloro-2-[3-(4-morpholin-4-ylphenyl)-1H-pyrazol-1-yl]nicotinamide]	+ (+ means 10≦Ki(cathepsin K)/Ki(calpain)<30)	+ (+ means 30≦Ki(cathepsin L)/Ki(calpain)<50)	–	++ (++ means a Ki(cathepsin B)/Ki(calpain) ratio of ≧30)
COc1ccc(OC)c(-c2ccn(-c3ncccc3C(=O)NC(Cc3ccccc3)C(=O)C(N)=O)n2)c1 (stereo not shown) [Example 151, N-[3-Amino-2,3-dioxo-1-(phenylmethyl)propyl]-2-{3-[2,5-bis(methyloxy)phenyl]-1H-pyrazol-1-yl}pyridine-3-carboxamide]	++ (++ means a Ki(cathepsin K)/Ki(calpain) ratio of ≧30)	++ (++ means a Ki(cathepsin L)/Ki(calpain) ratio of ≧50)	–	++ (++ means a Ki(cathepsin B)/Ki(calpain) ratio of ≧30)
NC(=O)C(=O)C(Cc1ccccc1)NC(=O)c1cccnc1-n1ccc(-c2cccc3cnccc23)n1 (stereo not shown) [Example 156, N-[3-Amino-2,3-dioxo-1-(phenylmethyl)propyl]-2-(3-isoquinolin-5-yl-1H-pyrazol-1-yl)pyridine-3-carboxamide]	–	+ (+ means 30≦Ki(cathepsin L)/Ki(calpain)<50)	++ (++ means a Ki(cathepsin S)/Ki(calpain) ratio of ≧100)	+ (+ means 10≦Ki(cathepsin B)/Ki(calpain)<30)
NC(=O)C(=O)C(Cc1ccccc1)NC(=O)c1cccnc1-n1ccc(-c2ccc3c(c2)CCO3)n1 (stereo not shown) [Example 75, N-(3-Amino-1-benzyl-2,3-dioxopropyl)-2-[3-(2,3-dihydrobenzo[b]furan-5-yl)-1H-pyrazol-1-yl]nicotinamide]	+ (+ means 10≦Ki(cathepsin K)/Ki(calpain)<30)	++ (++ means a Ki(cathepsin L)/Ki(calpain) ratio of ≧50)	++ (++ means a Ki(cathepsin S)/Ki(calpain) ratio of ≧100)	–
